This assay concerns gallstones. Description: administration to a patient during weight loss, development of gallstones. It counts as in vivo, human. The note with it: 10 mg orally once daily in the morning while patient is losing weight. The method, then:
Sibutramine 10 mg orally once daily is administered in the morning during the time a patient is losing weight.

On to `CC(C)CC(N(C)C)C1(c2ccc(Cl)cc2)CCC1` (stereo not shown) [Sibutramine, N,N-dimethyl-1-[1-(4-chlorophenyl)cyclobutyl]-3-methylbutylamine], for which the development of gallstones result is “does not develop gallstones”.

The values are drawn from US6376552B1, “Treatment of gallstones” (Knoll Pharmaceutical Company, priority 1999, dated 2002).
